Experimental data reported in article PMC12439480, “Dimeric CCK2R radiotheranostic tracers synergize with mTOR inhibition for enhanced tumor therapy” (Theranostics, 2025).
Numbered stars: 1 amine (or outer) side, 2 acyl side, 3 side chain; on linkers, the order of the positions; unused ones are H or OH. Square brackets hold non-standard residues; d marks the D form. Side chains are listed from the residue outwards. Peptide text beside a SMILES is read from it. * marks the point of attachment. DOTA = O=C(O)CN1CCN(CC(=O)O)CCN(CC(=O)*)CCN(CC(=O)O)CC1; d(γGlu) = O=C(O)[C@@H](CCC(=O)[*:2])N[*:1]; 1Nal = N[C@@H](Cc1cccc2ccccc12)C(=O)O; NMeNle = CCCC[C@H](NC)C(=O)O; PEG4 = NCCOCCOCCOCCOCCC(=O)O

Assay: Ex vivo biodistribution of 177Lu-labeled compound
Design: species or system BALB/c nude mice
Conditions: mouse, in vivo
Experimental: To evaluate the biodistribution of [^177Lu]Lu-DOTA-CCK2R-dimer, AR42J tumor-bearing mice received intravenous (i.v.) injections of 3.7 MBq (≈ 120 pmol) of [^177Lu]Lu-DOTA-CCK2R-dimer (dissolved in 200 μL of saline; n = 3/group), and Mice were sacrificed at 1, 4, 24, 48, 72, and 96 h post-injection. The tissues of interest were excised, weighed, and analyzed for radioactivity using a γ-counter.
All animal studies were approved by the Ethics Committee of Fudan University Shanghai Cancer Center (No. FUSCC-IACUC- S2023- 0003). Five-week-old female BALB/c nude mice were purchased from Shanghai SLAC Laboratory Animal
Company. To establish cell-derived xenograft (CDX) models, 1 × 10⁶ AR42J cells (100 μL) were subcutaneously inoculated into the right shoulder of each mouse. […]
Radioactivity levels were measured using a gamma counter, with decay correction applied based on the injection time. The percentage of injected dose per gram of tissue (%ID/g) was calculated for each time point. […]

Question: What does the source list for CCCC[C@@H](C(=O)N[C@@H](CC(=O)O)C(=O)N[C@@H](Cc1cccc2ccccc12)C(N)=O)N(C)C(=O)[C@H](Cc1c[nH]c2ccccc12)NC(=O)CCOCCOCCOCCOCCNC(=O)CC[C@@H](NC(=O)CC[C@H](NC(=O)CN1CCN(CC(=O)O)CCN(CC(=O)O)CCN(CC(=O)O)CC1)C(=O)N[C@H](CCC(=O)NCCOCCOCCOCCOCCC(=O)N[C@@H](Cc1c[nH]c2ccccc12)C(=O)N(C)[C@@H](CCCC)C(=O)N[C@@H](CC(=O)O)C(=O)N[C@@H](Cc1cccc2ccccc12)C(N)=O)C(=O)O)C(=O)O [[177Lu]Lu-DOTA-CCK2R-dimer, metal not drawn] ({DOTA}-E([d(γGlu)-PEG4-Trp-NMeNle-Asp-1Nal-NH2])[d(γGlu)][PEG4]W[NMeNle]D[1Nal]-NH2)?
Answer: tissue uptake at 48 h (Bladder uptake): 0.03 ± 0.01 %ID/g; tissue uptake at 72 h (Bladder uptake): 0.06 ± 0.03 %ID/g; tissue uptake at 96 h (Bladder uptake): 0.1 ± 0.05 %ID/g; tissue uptake at 1 h (Blood uptake): 6.93 ± 1.84 %ID/g; tissue uptake at 4 h (Blood uptake): 1.19 ± 0.3 %ID/g; tissue uptake at 24 h (Blood uptake): 0.05 ± 0.01 %ID/g; tissue uptake at 48 h (Blood uptake): 0.02 ± 0.01 %ID/g; tissue uptake at 72 h (Blood uptake): 0.002 ± 0.0005 %ID/g; tissue uptake at 96 h (Blood uptake): 0.008 ± 0.007 %ID/g; tissue uptake at 1 h (Bone uptake): 0.65 ± 0.27 %ID/g; tissue uptake at 4 h (Bone uptake): 0.35 ± 0.19 %ID/g; tissue uptake at 24 h (Bone uptake): 0.04 ± 0.02 %ID/g; tissue uptake at 48 h (Bone uptake): 0.004 ± 0.001 %ID/g; tissue uptake at 72 h (Bone uptake): 0.03 ± 0.02 %ID/g; tissue uptake at 96 h (Bone uptake): 0.02 ± 0.01 %ID/g; tissue uptake at 1 h (Brain uptake): 0.14 ± 0.01 %ID/g; tissue uptake at 4 h (Brain uptake): 0.03 ± 0.01 %ID/g; tissue uptake at 24 h (Brain uptake): 0.003 ± 0.002 %ID/g; tissue uptake at 48 h (Brain uptake): 0.003 ± 0.002 %ID/g; tissue uptake at 72 h (Brain uptake): 0.004 ± 0.003 %ID/g; tissue uptake at 96 h (Brain uptake): 0.006 ± 0.002 %ID/g; tissue uptake at 1 h (Heart uptake): 1.29 ± 0.41 %ID/g; tissue uptake at 4 h (Heart uptake): 0.67 ± 0.34 %ID/g; tissue uptake at 24 h (Heart uptake): 0.05 ± 0.03 %ID/g; tissue uptake at 48 h (Heart uptake): 0.02 ± 0.02 %ID/g; tissue uptake at 72 h (Heart uptake): 0.02 ± 0.008 %ID/g; tissue uptake at 96 h (Heart uptake): 0.03 ± 0.01 %ID/g; tissue uptake at 1 h (Kidney uptake): 8.92 ± 1.05 %ID/g; tissue uptake at 4 h (Kidney uptake): 6.79 ± 1.58 %ID/g; tissue uptake at 24 h (Kidney uptake): 3.43 ± 0.84 %ID/g; tissue uptake at 48 h (Kidney uptake): 1.59 ± 1 %ID/g; tissue uptake at 72 h (Kidney uptake): 1.6 ± 0.39 %ID/g; tissue uptake at 96 h (Kidney uptake): 1 ± 0.5 %ID/g; tissue uptake at 1 h (Large intestine uptake): 1.14 ± 0.38 %ID/g; tissue uptake at 4 h (Large intestine uptake): 0.61 ± 0.03 %ID/g; tissue uptake at 24 h (Large intestine uptake): 0.07 ± 0.01 %ID/g; tissue uptake at 48 h (Large intestine uptake): 0.05 ± 0.02 %ID/g; tissue uptake at 72 h (Large intestine uptake): 0.04 ± 0.03 %ID/g; tissue uptake at 96 h (Large intestine uptake): 0.05 ± 0.03 %ID/g; tissue uptake at 1 h (Liver uptake): 4.44 ± 1.8 %ID/g; tissue uptake at 4 h (Liver uptake): 3.42 ± 0.75 %ID/g; tissue uptake at 24 h (Liver uptake): 0.61 ± 0.11 %ID/g; tissue uptake at 48 h (Liver uptake): 0.58 ± 0.16 %ID/g; tissue uptake at 72 h (Liver uptake): 0.37 ± 0.05 %ID/g; tissue uptake at 96 h (Liver uptake): 0.42 ± 0.11 %ID/g; tissue uptake at 1 h (Lung uptake): 2.4 ± 0.05 %ID/g; tissue uptake at 4 h (Lung uptake): 1.06 ± 0.39 %ID/g; tissue uptake at 24 h (Lung uptake): 0.04 ± 0.03 %ID/g; tissue uptake at 48 h (Lung uptake): 0.02 ± 0.01 %ID/g; tissue uptake at 72 h (Lung uptake): 0.01 ± 0.01 %ID/g; tissue uptake at 96 h (Lung uptake): 0.02 ± 0.005 %ID/g; tissue uptake at 1 h (Muscle uptake): 0.36 ± 0.1 %ID/g; tissue uptake at 4 h (Muscle uptake): 0.16 ± 0.17 %ID/g; tissue uptake at 24 h (Muscle uptake): 0.01 ± 0.01 %ID/g; tissue uptake at 48 h (Muscle uptake): 0.007 ± 0.003 %ID/g; tissue uptake at 72 h (Muscle uptake): 0.007 ± 0.002 %ID/g; tissue uptake at 96 h (Muscle uptake): 0.006 ± 0.004 %ID/g; tissue uptake at 1 h (Small intestine uptake): 1.45 ± 0.39 %ID/g; tissue uptake at 4 h (Small intestine uptake): 0.58 ± 0.31 %ID/g; tissue uptake at 24 h (Small intestine uptake): 0.06 ± 0.04 %ID/g; tissue uptake at 48 h (Small intestine uptake): 0.06 ± 0.01 %ID/g; tissue uptake at 72 h (Small intestine uptake): 0.02 ± 0.01 %ID/g; tissue uptake at 96 h (Small intestine uptake): 0.04 ± 0.03 %ID/g; tissue uptake at 1 h (Spleen uptake): 2.62 ± 1.02 %ID/g; tissue uptake at 4 h (Spleen uptake): 2.23 ± 0.32 %ID/g; tissue uptake at 24 h (Spleen uptake): 0.15 ± 0.08 %ID/g; tissue uptake at 48 h (Spleen uptake): 0.02 ± 0.01 %ID/g; tissue uptake at 72 h (Spleen uptake): 0.05 ± 0.03 %ID/g; tissue uptake at 96 h (Spleen uptake): 0.15 ± 0.09 %ID/g; tissue uptake at 1 h (Stomach uptake): 3.88 ± 0.66 %ID/g; tissue uptake at 4 h (Stomach uptake): 3.05 ± 0.6 %ID/g; tissue uptake at 24 h (Stomach uptake): 1.07 ± 0.28 %ID/g; tissue uptake at 48 h (Stomach uptake): 1.04 ± 0.17 %ID/g; tissue uptake at 72 h (Stomach uptake): 0.26 ± 0.11 %ID/g; tissue uptake at 96 h (Stomach uptake): 0.24 ± 0.3 %ID/g; tissue uptake at 1 h (Tumor uptake): 19.2 ± 8.43 %ID/g; tissue uptake at 4 h (Tumor uptake): 14.7 ± 2.83 %ID/g; tissue uptake at 24 h (Tumor uptake): 6.12 ± 1.45 %ID/g; tissue uptake at 48 h (Tumor uptake): 4.32 ± 0.75 %ID/g; tissue uptake at 72 h (Tumor uptake): 2.01 ± 0.47 %ID/g; tissue uptake at 96 h (Tumor uptake): 1.1 ± 0.04 %ID/g
